± gives the uncertainty stated by the source.
Assay: xn = mol fraction of the nth substance listed

O + CCCCCCCCCCCCCCCC[n+]1ccccc1.O=C([O-])C(O)c1ccccc1 + NCC(=O)NCC(=O)O
101 kPa, x2 = 0, x3 = 0
Conditions	electrical conductivity [S/m]
293.15 K	0.00012
298.15 K	0.00015
303.15 K	0.00016
308.15 K	0.00017
313.15 K	0.00019

CCCC[n+]1ccn(C)c1.F[B-](F)(F)F + CC(C)C[C@H](N)C(=O)O + O
viscosity [mPa·s], 100 kPa
Conditions	293.15 K	298.15 K	303.15 K	308.15 K	313.15 K	318.15 K
x2 = 0, x1 = 0.0003729	1.03 ± 0.061	0.917 ± 0.061	0.835 ± 0.061	0.751 ± 0.061	0.693 ± 0.061	0.638 ± 0.061
x2 = 0, x1 = 0.0007257	1.062 ± 0.061	0.951 ± 0.061	0.868 ± 0.061	0.789 ± 0.061	0.736 ± 0.061	0.681 ± 0.061
x2 = 0, x1 = 0.0011	1.093 ± 0.061	0.983 ± 0.061	0.904 ± 0.061	0.83 ± 0.061	0.779 ± 0.061	0.725 ± 0.061

O + CCCC[n+]1ccc(C)cc1.[Br-]
100 kPa, frequency 0.003 MHz, x2 = 0
Conditions	electrical conductivity [S/m]
288.15 K	0.0001
308.15 K	0.00022

CCCCCCCCn1cc[n+](C)c1.O=S(=O)([N-]S(=O)(=O)C(F)(F)F)C(F)(F)F + O=C1CCCO1
100 kPa, frequency 0.005 MHz
Conditions	electrical conductivity [S/m]
293.15 K, x2 = 0.5048	0.325 ± 0.01
298.15 K, x2 = 0	0.136 ± 0.004
298.15 K, x2 = 0.6963	0.703 ± 0.021
303.15 K, x2 = 0.9514	0.796 ± 0.026
308.15 K, x2 = 0	0.207 ± 0.006
313.15 K, x2 = 0.2993	0.401 ± 0.012
318.15 K, x2 = 0	0.307 ± 0.009
318.15 K, x2 = 0.0997	0.342 ± 0.01
318.15 K, x2 = 0.8999	1.5 ± 0.046
323.15 K, x2 = 0.2993	0.534 ± 0.016
323.15 K, x2 = 0.9514	1.03 ± 0.035

CCC[N+]1(C)CCCC1.O=S(=O)([N-]S(=O)(=O)C(F)(F)F)C(F)(F)F + CCC[N+](C)(C)C.O=S(=O)([N-]S(=O)(=O)C(F)(F)F)C(F)(F)F
Conditions	viscosity [mPa·s]
298.15 K, 101.3 kPa, x2 = 0	61 ± 12

O=C1CCCCO1 + CCCC[n+]1ccn(C)c1.O=S(=O)([N-]S(=O)(=O)C(F)(F)F)C(F)(F)F
100 kPa, frequency 0.01 MHz
Conditions	electrical conductivity [S/m]
293.15 K, x2 = 0.1504	0.602 ± 0.024
293.15 K, x2 = 0.4006	0.589 ± 0.024
293.15 K, x2 = 0.8475	0.346 ± 0.014
298.15 K, x2 = 0.1004	0.428 ± 0.019
298.15 K, x2 = 0.4006	0.665 ± 0.027
298.15 K, x2 = 0.5005	0.594 ± 0.024
298.15 K, x2 = 0.5999	0.484 ± 0.019
303.15 K, x2 = 0.1004	0.471 ± 0.02
303.15 K, x2 = 0.1504	0.717 ± 0.029
308.15 K, x2 = 0.0532	0.209 ± 0.013
308.15 K, x2 = 0.1004	0.512 ± 0.022
308.15 K, x2 = 0.2988	0.9 ± 0.036
308.15 K, x2 = 0.7214	0.609 ± 0.024
318.15 K, x2 = 0.1999	1.04 ± 0.042
323.15 K, x2 = 0.0532	0.263 ± 0.016
323.15 K, x2 = 0.1504	1 ± 0.041
323.15 K, x2 = 0.1999	1.13 ± 0.045
323.15 K, x2 = 0.7214	0.895 ± 0.036

CCCn1cc[n+](C)c1.O=S(=O)([N-]S(=O)(=O)C(F)(F)F)C(F)(F)F + O
100 kPa, x2 = 0.272
Conditions	viscosity [mPa·s]
308.15 K	18.83 ± 0.16
318.15 K	13.95 ± 0.12
323.15 K	12.19 ± 0.11
343.15 K	7.64 ± 0.07
353.15 K	6.25 ± 0.05

CCC[N+]1(C)CCCC1.O=S(=O)([N-]S(=O)(=O)C(F)(F)F)C(F)(F)F + O=C1CCCO1
101 kPa, frequency 0.0005 MHz
Conditions	electrical conductivity [S/m]
278.15 K, x1 = 0.3874	0.573 ± 0.023
308.15 K, x1 = 0.1741	1.63 ± 0.065
328.15 K, x1 = 0.06566	1.63 ± 0.065
348.15 K, x1 = 0.1741	2.59 ± 0.1
348.15 K, x1 = 0.3874	2.27 ± 0.09
358.15 K, x1 = 0.06566	2.1 ± 0.084

101 kPa
Conditions	viscosity [mPa·s]
278.15 K, x1 = 1	163.6 ± 7
288.15 K, x1 = 0.1741	5.49 ± 0.22
328.15 K, x1 = 0.1741	2.63 ± 0.11
338.15 K, x1 = 0.06566	1.491 ± 0.061
338.15 K, x1 = 0.1741	2.274 ± 0.092
348.15 K, x1 = 0.1741	1.993 ± 0.081
358.15 K, x1 = 0.1741	1.768 ± 0.072
358.15 K, x1 = 1	10.34 ± 0.42

O + CCCCCCCCCCCCCC[n+]1ccccc1.O=C([O-])C(O)c1ccccc1 + NCC(=O)O
101 kPa, x2 = 0, x3 = 0
Conditions	electrical conductivity [S/m]
293.15 K	0.00012
298.15 K	0.00015
303.15 K	0.00016
308.15 K	0.00017
313.15 K	0.00019

CCCOCCO + CCCC[n+]1ccn(C)c1.[Br-]
100 kPa, x2 = 0
Conditions	viscosity [mPa·s]
298.15 K	2.38 ± 0.24
303.15 K	2.11 ± 0.21
308.15 K	1.88 ± 0.19
313.15 K	1.69 ± 0.17

O + CC[n+]1ccn(C)c1.CS(=O)(=O)[O-]
Conditions	electrical conductivity [S/m]
298.15 K, 100 kPa, x1 = 1	0.00023 ± 1e-05

100 kPa, frequency 0.003 MHz, x2 = 0
Conditions	electrical conductivity [S/m]
323.15 K	0.0005 ± 0.0001
333.15 K	0.0015 ± 0.0001

CCCC[n+]1ccn(C)c1.F[B-](F)(F)F + C1COCCO1
298.15 K, 100 kPa
Conditions	electrical conductivity [S/m]	viscosity [mPa·s]
x1 = 0.2559	0.403 ± 0.004	6.011 ± 0.079
x1 = 0.3956	0.395 ± 0.004	12.17 ± 0.16
x1 = 0.4988	0.34 ± 0.003	19.88 ± 0.26
x1 = 0.6	0.306 ± 0.003	29.48 ± 0.38
x1 = 0.7021	–	42.97 ± 0.55
x1 = 0.8993	0.252 ± 0.003	79.5 ± 1.4
x1 = 1	0.243 ± 0.002	104.7 ± 2.6

Source: the CheMixHub ionic liquid set
